Calls of active or inactive are those of the source. Cut-off read from the data, not from the text of the source, for most assays here: actives have a measured EC50 and inactives only a lower limit.
Tests used:
INS1 = assay: INS-1E survival protection against cytokine death – cell-based, luminescence, retest, dose response (AID 449756); assay type: functional; settings: Rattus norvegicus;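 note: cell death triggered by IL-1 beta plus TNF-alpha plus IFN-gamma mixture; protective hits raise ATP signal compared with cytokine alone wells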
[1] = Luminescence Cell-Based Dose Response HTS to Identify Inhibitors of 5'UTR Stem-Loop Driven Prion Protein mRNA Translation in H4 Neuroglioblastoma Cells. [Related pubchem assays: 1827 (Project Summary), 1813 (Primary HTS)]; assay type: functional
[2] = alpha-synuclein stem-loop luciferase translation blockers – H4 neuroglioma cells, luminescence, confirmation (AID 1988); assay type: functional, cell-based
[3] = molecular target: T1, Replicative DNA helicase DnaB (Mycobacterium tuberculosis, UniProt P9WMR3); assay: DnaB intein splicing inhibitors, dose response, biochemical, cell-free fluorescence (AID 449749); assay type: functional
T1 sequence (P9WMR3 whole entry): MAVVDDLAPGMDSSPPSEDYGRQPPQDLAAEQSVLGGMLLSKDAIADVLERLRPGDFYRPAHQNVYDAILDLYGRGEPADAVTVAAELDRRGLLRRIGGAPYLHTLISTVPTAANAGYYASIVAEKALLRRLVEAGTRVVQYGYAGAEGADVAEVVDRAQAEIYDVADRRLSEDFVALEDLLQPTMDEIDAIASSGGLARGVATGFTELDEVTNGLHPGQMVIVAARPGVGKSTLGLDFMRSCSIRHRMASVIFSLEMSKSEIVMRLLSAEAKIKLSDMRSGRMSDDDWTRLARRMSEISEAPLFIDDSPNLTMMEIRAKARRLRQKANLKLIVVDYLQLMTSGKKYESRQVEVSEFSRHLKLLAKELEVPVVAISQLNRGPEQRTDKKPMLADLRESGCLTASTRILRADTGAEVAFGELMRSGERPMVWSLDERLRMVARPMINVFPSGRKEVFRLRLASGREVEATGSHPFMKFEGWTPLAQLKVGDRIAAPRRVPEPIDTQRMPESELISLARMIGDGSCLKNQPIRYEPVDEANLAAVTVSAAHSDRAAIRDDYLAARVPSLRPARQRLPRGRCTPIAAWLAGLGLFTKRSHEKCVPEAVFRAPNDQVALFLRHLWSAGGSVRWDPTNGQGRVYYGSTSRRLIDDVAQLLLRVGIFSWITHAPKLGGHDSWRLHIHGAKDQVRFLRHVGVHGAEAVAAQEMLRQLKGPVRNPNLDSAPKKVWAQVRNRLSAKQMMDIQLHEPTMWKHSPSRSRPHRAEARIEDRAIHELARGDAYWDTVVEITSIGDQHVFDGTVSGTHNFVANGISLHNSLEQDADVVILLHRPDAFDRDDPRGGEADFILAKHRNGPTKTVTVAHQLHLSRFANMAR

Protein RecA = molecular target: T2, Protein RecA (Mycobacterium tuberculosis, UniProt P9WHJ3); assay: Fluorescence Cell-Free Homogeneous Dose Retest to Identify Inhibitors of RecA-Intein Splicing Activity. [Related pubchem assays (depositor defined):AID2097, AID2223, AID489010, AID492950]; assay type: functional
T2 sequence (P9WHJ3 whole entry): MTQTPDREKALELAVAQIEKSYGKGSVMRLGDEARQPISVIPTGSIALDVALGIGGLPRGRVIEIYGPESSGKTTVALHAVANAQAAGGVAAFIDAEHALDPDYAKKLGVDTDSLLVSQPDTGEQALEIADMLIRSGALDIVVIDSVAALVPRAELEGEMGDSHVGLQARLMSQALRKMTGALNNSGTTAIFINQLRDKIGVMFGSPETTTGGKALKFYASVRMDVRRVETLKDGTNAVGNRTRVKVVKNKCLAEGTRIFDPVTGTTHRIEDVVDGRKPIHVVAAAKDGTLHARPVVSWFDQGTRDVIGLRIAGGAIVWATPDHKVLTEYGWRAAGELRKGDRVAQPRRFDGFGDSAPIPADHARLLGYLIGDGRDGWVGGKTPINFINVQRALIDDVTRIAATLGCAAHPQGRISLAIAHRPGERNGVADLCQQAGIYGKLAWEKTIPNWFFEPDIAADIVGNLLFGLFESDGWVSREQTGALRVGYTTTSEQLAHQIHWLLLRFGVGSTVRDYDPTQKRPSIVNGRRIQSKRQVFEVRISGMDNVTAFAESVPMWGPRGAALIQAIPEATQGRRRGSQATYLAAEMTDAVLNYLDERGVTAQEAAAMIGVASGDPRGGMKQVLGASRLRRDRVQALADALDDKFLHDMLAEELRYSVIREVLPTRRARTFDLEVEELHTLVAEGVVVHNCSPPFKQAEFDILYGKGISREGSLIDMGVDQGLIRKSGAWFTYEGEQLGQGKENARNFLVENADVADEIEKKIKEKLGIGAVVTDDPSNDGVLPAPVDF

[4] = molecular target: T3, Heat shock factor protein 1 (Mus musculus, UniProt P38532); assay: enhancement of HSF1-driven luciferase signal – cell-based, NIH3T3, luminescence, dose retest, confirmation (AID 435004); assay type: functional;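 note: stress induced by proteasome inhibitor MG132 added 30 min after compound; luciferase reporter driven by HSF1 response element in NIH3T3 cells; actives raise luminescence as potentiators of the MG132 stress response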
T3 sequence (P38532 whole entry): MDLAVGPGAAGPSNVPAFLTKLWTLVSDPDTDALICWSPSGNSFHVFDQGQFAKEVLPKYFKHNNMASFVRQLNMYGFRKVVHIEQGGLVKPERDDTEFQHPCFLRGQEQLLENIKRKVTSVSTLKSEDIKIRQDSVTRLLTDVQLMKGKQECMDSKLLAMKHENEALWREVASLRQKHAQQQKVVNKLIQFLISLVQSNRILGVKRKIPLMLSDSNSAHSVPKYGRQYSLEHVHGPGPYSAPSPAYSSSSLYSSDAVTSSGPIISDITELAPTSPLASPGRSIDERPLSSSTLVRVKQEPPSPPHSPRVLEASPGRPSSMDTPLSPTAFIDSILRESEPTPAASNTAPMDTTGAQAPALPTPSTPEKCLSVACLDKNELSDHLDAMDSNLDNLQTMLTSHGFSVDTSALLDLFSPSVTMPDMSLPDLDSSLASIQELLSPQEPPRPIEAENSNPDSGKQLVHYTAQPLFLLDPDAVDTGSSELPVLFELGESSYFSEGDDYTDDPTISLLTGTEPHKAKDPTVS

[5] = NIH-3T3 fibroblast cytotoxicity, dose response, cytotoxicity control, cell-based, fluorescence, Alamar Blue, secondary assay (AID 2327); assay type: functional;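 note: NIH-3T3 mouse fibroblasts cultured with fluconazole at 8 µg/mL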
[6] = fluconazole-exposed Candida albicans growth modulators – fluorescence, retest, confirmation (AID 2467); assay type: functional, cell-based
[7] = NIH3T3 cell viability loss – ATP luminescence, mouse fibroblasts, counter-screen, dose response (AID 2010); assay type: functional, cell-based;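 note: cells exposed to compound for about 90 hours before reading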
[8] = Trypanosoma cruzi growth suppression in host cells – NIH3T3 host cells, beta-gal luminescence, confirmation (AID 2044); assay type: functional, cell-based;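 note: intracellular parasites grown in NIH/3T3 mouse fibroblasts as host cells; luminescent beta-galactosidase reporter signal from transgenic T. cruzi replicating inside host cells; inhibitors lower the luminescence signal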
Cytochrome P450 1A2 = molecular target: T4, Cytochrome P450 1A2 (Homo sapiens, UniProt P05177);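 note: PubChem cytochrome P450 panel assay, CYP1A2 panel member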
T4 sequence (P05177 whole entry): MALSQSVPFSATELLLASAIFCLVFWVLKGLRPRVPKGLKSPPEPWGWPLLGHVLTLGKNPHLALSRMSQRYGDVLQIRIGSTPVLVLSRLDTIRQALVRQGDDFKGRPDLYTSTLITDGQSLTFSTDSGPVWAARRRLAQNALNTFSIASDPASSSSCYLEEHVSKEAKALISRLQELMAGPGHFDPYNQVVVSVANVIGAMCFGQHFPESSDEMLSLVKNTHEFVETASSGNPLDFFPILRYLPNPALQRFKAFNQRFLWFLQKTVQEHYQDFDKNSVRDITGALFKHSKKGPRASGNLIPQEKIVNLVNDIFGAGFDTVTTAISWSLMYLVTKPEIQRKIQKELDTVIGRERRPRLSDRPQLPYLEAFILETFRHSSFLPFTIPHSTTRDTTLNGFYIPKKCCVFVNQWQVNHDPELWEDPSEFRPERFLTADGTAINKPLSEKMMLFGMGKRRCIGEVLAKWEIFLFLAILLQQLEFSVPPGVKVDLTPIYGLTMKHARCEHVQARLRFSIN

Streptokinase A = molecular target: T5, Streptokinase A (Streptococcus pyogenes serotype M1, UniProt P10520); assay: viability-normalized secreted streptokinase activity reduction – plasminogen activation absorbance, OD405, dose response (AID 1914); assay type: functional, Streptococcus pyogenes M1 GAS;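 note: secreted streptokinase activity via plasminogen activation per viability signal from cell pellet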
T5 sequence (P10520 whole entry): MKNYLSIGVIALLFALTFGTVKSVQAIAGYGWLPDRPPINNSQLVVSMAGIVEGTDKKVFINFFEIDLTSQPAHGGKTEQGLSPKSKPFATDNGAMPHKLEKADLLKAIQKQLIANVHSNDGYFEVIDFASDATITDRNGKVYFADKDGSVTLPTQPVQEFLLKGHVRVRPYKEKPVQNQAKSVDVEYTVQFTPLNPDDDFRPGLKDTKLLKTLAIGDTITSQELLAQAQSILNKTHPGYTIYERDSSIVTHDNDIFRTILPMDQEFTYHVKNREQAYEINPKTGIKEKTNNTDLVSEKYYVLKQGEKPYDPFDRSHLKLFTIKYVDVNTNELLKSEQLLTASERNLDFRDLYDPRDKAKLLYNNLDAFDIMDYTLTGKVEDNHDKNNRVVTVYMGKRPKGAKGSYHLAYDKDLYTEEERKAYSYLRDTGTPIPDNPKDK

[9] = Luminescence Cell-Based Dose Retest to Confirm Inhibitors of Cancer Stem Cells. [Related pubchem assays (depositor defined):AID2717, AID2721]; assay type: functional; settings: Homo sapiens
Streptococcus = assay: GAS UMAA2166 growth inhibition – luminescence, BacTiterGlo, counter-screen for streptokinase expression inhibitor project, dose response (AID 1915); assay type: functional, organism-based;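 note: potency for reduction of bacterial viability or growth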
[10] = system: Streptococcus sp. 'group A'; assay: Streptococcus pyogenes SK(-)GAS viability under kanamycin – luminescence, BacTiterGlo, confirmation, counter-screen for streptokinase expression inhibitor project, dose response (AID 1900); assay type: functional, organism-based
[11] = reduction of Shn3 3'UTR-driven luciferase in osteoblasts – cell-based, Clone20 osteoblasts, firefly luciferase, cherry-picked, dose response (AID 624132); assay type: functional;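 note: firefly luciferase luminescence from reporter carrying the Shn3 3'UTR in osteoblasts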
[12] = non-specific 3'UTR reporter inhibition in Clone20-Shn3RL – cell-based, Renilla luciferase, cherry-picked, counter-screen for Shn3 inhibitor project, dose response (AID 624133); assay type: functional

## O=C(CN1CCCc2ccccc21)N/N=C/c1ccccc1O
INS1
  AC50: 4.81 µM (active)

## CCCCc1ccc(-c2ccc(C)cc2O)nc1
[1]
  EC50: 11.7 µM (inconclusive)
[2]
  EC50: 4.33 µM (active)

## O=C(O)c1ccc(-n2c(=O)c3ccccc3c3ccccc3c2=O)cc1
[3]
  AC50: 15.8 µM (active)
Protein RecA
  EC50: 70.7 µM (active)

## Cc1ccc(-n2nc3c(c2NC(=O)c2ccc4c(c2)OCO4)CSC3)c(C)c1
[4]
  EC50: > 260 µM (inactive)

## O=C(Nc1ccccc1O)c1ccccc1O
[5]
  EC50: > 150 µM (inactive)
[6]
  EC50: 6.43 µM (active)

## CCOC(=O)C1CCCN(c2cc(C)nc3cc(-c4ccc(F)cc4)nn23)C1 (stereo not given)
[5]
  EC50: > 160 µM (inactive)
[6]
  EC50: > 38 µM (not active)

## CN(CCCNC(=O)CCCOc1cc(=O)n(C)c2ccccc12)Cc1ccccc1
[5]
  EC50: > 160 µM (inactive)
[6]
  EC50: > 38 µM (not active)
[7]
  EC50: > 30 µM (not active)
[8]
  EC50: 0.46 µM (active)

## Cc1[nH]c2ccccc2c1CCNC(=O)c1ccc2c(c1[N+](=O)[O-])C(=O)c1ccccc1C2=O
[3]
  AC50: 10.1 µM (active)
Protein RecA
  EC50: 3.26 µM (active)
Cytochrome P450 1A2
  AC50: 4.47 µM (inconclusive)

## COC(/C(=N/O)c1ccc(Cl)cc1)c1ccccc1 (stereo not given)
INS1
  AC50: 2.72 µM (active)

## Cc1nc2cc3[nH]c(C(F)(F)F)nc3cc2[nH]1
[4]
  EC50: > 260 µM (inactive)

## Cc1ccc2cccc(NC(=O)C(F)(F)F)c2n1
[4]
  EC50: > 260 µM (inactive)

## O=C(O)c1ccc(/C=C(\c2nc3ccccc3[nH]2)c2nc3ccccc3s2)cc1
[3]
  AC50: > 380 µM (inactive)
Protein RecA
  EC50: 21 µM (active)

## O=C(N/N=C/c1ccc([N+](=O)[O-])o1)c1ccccc1NS(=O)(=O)c1cccs1
[3]
  AC50: > 380 µM (inactive)
Protein RecA
  EC50: 125 µM (active)

## C#CC[N+]1(CC#Cc2ccccc2)CCCCC1
[4]
  EC50: > 260 µM (inactive)

## O=C1c2ccccc2C2=Nc3ccccc3SC(c3ccc(Cl)cc3)C12 (stereo not given)
INS1
  AC50: 14.1 µM (active)
Streptokinase A
  EC50: > 150 µM (not active)
[9]
  AC50: 5.23 µM (active)
Streptococcus
  EC50: 4.58 µM (active)
[10]
  EC50: 2.87 µM (active)

## Cc1cccc(NC2=NC(=S)N(c3cccc(C(=O)O)c3)C23CCCCC3)c1
[5]
  EC50: 19.7 µM (inconclusive)
[6]
  EC50: 2.12 µM (active)

## Cc1ccc(C2CC(c3ccc(C)cc3)n3nc(N)nc3N2)cc1 (stereo not given)
INS1
  AC50: 28.7 µM (active)

## COc1ccc2nc(N=Nc3ccc(O)c4ccccc34)sc2c1
INS1
  AC50: 2.09 µM (active)
[9]
  AC50: 1.73 µM (active)

## CN1CC(C(=O)c2ccc(F)cc2)C(c2c(F)cccc2Cl)C1 (stereo not given)
[4]
  EC50: > 260 µM (inactive)

## O=C1N=NC2=C1c1c3ccccc3c(O)n1CC2
[3]
  AC50: 15.6 µM (active)
Protein RecA
  EC50: 7.63 µM (active)

## COc1cc2nc(S)nc(NCc3cccs3)c2cc1OC
[4]
  EC50: > 260 µM (inactive)

## NC(=O)c1cc(N2C(=O)C=CC2=O)ccc1Cl
[11]
  AC50: 11.3 µM (active)
[12]
  AC50: 25.5 µM (active)

## Cc1ccc(NC(=O)NCc2ccccn2)c(C)c1
[5]
  EC50: > 160 µM (inactive)
[6]
  EC50: 6.59 µM (active)

## Cc1cc2nc(Sc3c([N+](=O)[O-])nc(C)n3Cc3ccccc3)[nH]c2cc1C
[3]
  AC50: 11.3 µM (active)
Protein RecA
  EC50: 7.56 µM (active)
